Measured values from the OPERA property sets (Mansouri et al. 2018).
≈ marks a conversion by molar mass, not a printed value.

Conditions: for solubility: 22 °C

| Structure (SMILES) | logP | solubility [µM] |
| --- | --- | --- |
| CNC(=O)COC(=O)c1ccccc1 | 0.99 | 19200 (≈ 3700 µg/mL) |
| COCCN(CCOC)C(=O)COC(=O)c1ccccc1 | 1.28 | – |
| NC(=O)COC(=O)c1ccccc1 | 0.69 | 22900 (≈ 4100 µg/mL) |
| CCCOC(=O)n1c(-c2cscn2)nc2ccccc21 | 2.98 | – |
| CC(=O)NC(=O)COC(=O)c1ccccc1 | 1.24 | 3980 (≈ 880 µg/mL) |
| CC(NC(=O)COC(=O)c1ccccc1)C(N)=O (stereo not drawn) | 0.42 | – |
| O=C(COC(=O)c1ccccc1)NC(CO)(CO)CO | 0.25 | – |
| CC(O)CN(CC(C)O)C(=O)COC(=O)c1ccccc1 (stereo not drawn) | 0.66 | – |
| O=C(OCC(=O)N1CCC1C(=O)O)c1ccccc1 (stereo not drawn) | 0.79 | – |
| CCCCN(CCCC)C(=O)COC(=O)c1ccccc1 | – | 275 (≈ 80 µg/mL) |
| O=C(OCC(=O)N1CCCCCC1)c1ccccc1 | – | 2870 (≈ 750 µg/mL) |
| CCCCCCN(CCCCCC)C(=O)COC(=O)c1ccccc1 | 6.53 | – |
| CCNC(=O)COC(=O)c1ccccc1 | 1.28 | 5790 (≈ 1200 µg/mL) |
| CC(=O)N(C)CCOC(=O)c1ccccc1 | 1.24 | – |
| O=C(OCC(=O)N1CCOCC1)c1ccccc1 | – | 16900 (≈ 4200 µg/mL) |
| CCCCCCN(C)C(=O)COC(=O)c1ccccc1 | 2.99 | – |

| Structure (SMILES) | logP | solubility [µM] |
| --- | --- | --- |
| O=C(OCC(=O)N1CCCCC1)c1ccccc1 | – | 3150 (≈ 780 µg/mL) |
| C[C@H](NC(=O)COC(=O)c1ccccc1)C(N)=O | – | 1920 (≈ 480 µg/mL) |
| NC(=O)C1CCCN1C(=O)COC(=O)c1ccccc1 (stereo not drawn) | 0.2 | – |
| CC(=O)N(C)C(=O)COC(=O)c1ccccc1 | 1.58 | 1360 (≈ 320 µg/mL) |
| CCCCCCNC(=O)COC(=O)c1ccccc1 | 2.81 | 125 (≈ 33 µg/mL) |
| CC(=O)Oc1ccccc1C(=O)OCCN(C)C(C)=O | 1.46 | – |
| CC(C)(C)NC(=O)COC(=O)c1ccccc1 | 2.26 | 1360 (≈ 320 µg/mL) |
| CCCC(=O)OCOC(=O)c1ccccc1OC(C)=O | 2.5 | – |
| C=CCN(CC=C)C(=O)COC(=O)c1ccccc1 | – | 2740 (≈ 710 µg/mL) |
| CN(C)C(=O)COC(=O)c1ccccc1 | – | 42500 (≈ 8800 µg/mL) |
| CCCCNC(=O)COC(=O)c1ccccc1 | 2.36 | 1740 (≈ 410 µg/mL) |
| CC(C)NC(=O)COC(=O)c1ccccc1 | 1.73 | 1850 (≈ 410 µg/mL) |
| CCN(CC)C(=O)C(C)OC(=O)c1ccccc1 (stereo not drawn) | 2.3 | – |
| CCCNC(=O)COC(=O)c1ccccc1 | 1.88 | 2890 (≈ 640 µg/mL) |
| O=C(OCC(=O)N1CCC(O)CC1)c1ccccc1 | 0.63 | 44800 (≈ 11800 µg/mL) |
| CCN(CC)C(=O)COC(=O)c1ccccc1 | – | 8500 (≈ 2000 µg/mL) |
